Laboratory results: PubChem BioAssay (NCI)
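How tested: cells in 96-well plates exposed to compound for 48 hours at five concentrations. Definition used: TGI = concentration required for complete inhibition of growth.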

Tests used:
Test in all cases: DTP human tumour cell line panel, 48 h
T-47D breast = system: T-47D breast
786-0 renal = system: 786-0 renal
SNB-19 CNS = system: SNB-19 CNS
KM12 colon = system: KM12 colon
U251 CNS = system: U251 CNS
SF-295 CNS = system: SF-295 CNS
UACC-257 melanoma = system: UACC-257 melanoma
HCC-2998 colon = system: HCC-2998 colon
SK-MEL-2 melanoma = system: SK-MEL-2 melanoma
UO-31 renal = system: UO-31 renal
SR leukemia = system: SR leukemia
HS 578T breast = system: HS 578T breast
OVCAR-3 ovarian = system: OVCAR-3 ovarian
CAKI-1 renal = system: CAKI-1 renal
SK-MEL-5 melanoma = system: SK-MEL-5 melanoma
SK-MEL-28 melanoma = system: SK-MEL-28 melanoma
MDA-N = system: MDA-N

Compound	TGI (T-47D breast)	TGI (786-0 renal)	TGI (SNB-19 CNS)	TGI (KM12 colon)	TGI (U251 CNS)	TGI (SF-295 CNS)	TGI (UACC-257 melanoma)	TGI (HCC-2998 colon)	TGI (SK-MEL-2 melanoma)	TGI (UO-31 renal)	TGI (SR leukemia)	TGI (HS 578T breast)	TGI (OVCAR-3 ovarian)	TGI (CAKI-1 renal)	TGI (SK-MEL-5 melanoma)	TGI (SK-MEL-28 melanoma)	TGI (MDA-N)
O=[N+]([O-])c1ccc(C2Nn3c(nnc3-c3cccc([N+](=O)[O-])c3)S2)cc1 (configuration not stated)	> 100 µM	> 100 µM	> 100 µM	> 100 µM	> 100 µM	> 100 µM	> 100 µM	> 100 µM	> 100 µM	> 100 µM	> 100 µM	> 100 µM	> 100 µM	> 100 µM	> 100 µM		
Cc1cc(N(CCC#N)CCC#N)ccc1/C(Sc1ccccc1)=C(\NC(=O)/C=C/c1ccccc1)C(=O)Sc1ccccc1		8.8 µM	38.2 µM	15.3 µM	5.83 µM	14.7 µM	25.9 µM	23.9 µM	16.6 µM	6.15 µM	> 31.5 µM		15.8 µM	12.1 µM	16.3 µM	18.5 µM	
Cc1cc(N(C)c2ccccc2)nc(N(C)c2ccccc2)n1		> 100 µM	> 100 µM	45.7 µM	> 100 µM	92.5 µM	57.7 µM	79.6 µM	36.9 µM	> 100 µM	55.5 µM	> 100 µM	70.4 µM	> 100 µM	69.1 µM	98 µM	> 100 µM
CC(=O)OC1CCn2c1nc1c2C(=O)C=C(N2CC2)C1=O (configuration not stated)	2.38 µM	0.557 µM	10.8 µM		0.853 µM	5.61 µM	1.02 µM	3.07 µM	0.439 µM	0.35 µM	0.346 µM		0.546 µM	0.124 µM	0.305 µM	0.147 µM	1.06 µM
CN(C)CCNc1ncnc2nc(-c3ccccc3)c(-c3ccccc3)nc12	> 100 µM	> 100 µM		> 100 µM	> 100 µM		> 100 µM		> 100 µM	> 100 µM		> 100 µM	> 100 µM	> 100 µM	> 100 µM	> 100 µM	> 100 µM
Cc1cc2c(cc1Cl)SC(NNC(=O)c1ccccc1)=NS2(=O)=O	> 10 µM	> 10 µM	> 10 µM	> 10 µM	> 10 µM	> 10 µM	> 10 µM	> 10 µM	> 10 µM			> 10 µM	> 10 µM	> 10 µM	> 10 µM	> 10 µM	
Cc1c(N)c(C#N)c2n(C)c3ncccc3n2c1=O		> 100 µM	> 100 µM	> 100 µM	> 100 µM	> 100 µM	> 100 µM	> 100 µM	> 100 µM	> 100 µM	> 100 µM		> 100 µM	> 100 µM	> 100 µM	> 100 µM	
O=C1NC(=S)NC(=O)C1=Cc1ccc([N+](=O)[O-])o1		36.5 µM	> 100 µM	> 100 µM	> 100 µM	> 100 µM	> 100 µM	> 100 µM	> 100 µM	> 100 µM	43.9 µM			37 µM	44.5 µM	47.7 µM	
CC(=O)c1ccc(NC(=O)C(=O)CC(=O)c2sc(-n3nc(-c4ccccc4)cc3-c3ccccc3)nc2C)cc1		> 100 µM	> 100 µM	> 100 µM	> 100 µM	> 100 µM	> 100 µM	> 100 µM	> 100 µM	> 100 µM	> 100 µM		> 100 µM	> 100 µM			
CCN(CC)CC(C(C)=O)C(c1ccccc1)c1c(O)c2ccccc2oc1=O (configuration not stated)		> 100 µM	> 100 µM	> 100 µM	> 100 µM	> 100 µM	> 100 µM	> 100 µM	> 100 µM	> 100 µM	> 100 µM		> 100 µM	> 100 µM	> 100 µM	> 100 µM	
COC(=O)c1ccccc1C1CN=NC12Cc1cc3c(cc1C2=O)CCC3 (configuration not stated)	> 100 µM	> 100 µM	> 100 µM	> 100 µM	> 100 µM	> 100 µM	> 100 µM	> 100 µM	> 100 µM	> 100 µM		> 100 µM	> 100 µM	> 100 µM	48.7 µM	> 100 µM	> 100 µM
COc1ccc(/C=N/NS(=O)(=O)c2ccc(/C=C3\NC(=O)NC3=O)cc2)cc1	> 100 µM	> 100 µM	> 100 µM	> 100 µM	> 100 µM	> 100 µM	> 100 µM	> 100 µM	> 100 µM	> 100 µM		> 100 µM	> 100 µM	> 100 µM	> 100 µM	> 100 µM	> 100 µM
C#CCNCC(=O)O	> 100 µM	> 100 µM	> 100 µM	> 100 µM	> 100 µM	> 100 µM	> 100 µM	> 100 µM	> 100 µM	> 100 µM		> 100 µM	> 100 µM	> 100 µM	> 100 µM	> 100 µM	> 100 µM
c1ccc(C2(c3cc4ccccc4[nH]3)OCCO2)nc1	> 100 µM	> 100 µM	> 100 µM	> 100 µM	> 100 µM	> 100 µM	> 100 µM	> 100 µM	> 100 µM	> 100 µM		> 100 µM	> 100 µM	> 100 µM	> 100 µM	> 100 µM	
Cc1ccc(N=NC(=O)NNc2ccc(C)cc2Br)c(Br)c1	> 100 µM	42.4 µM	> 100 µM		34.9 µM		79.8 µM	31.3 µM	32 µM	77.2 µM	90.1 µM		41.2 µM	> 100 µM	33.9 µM	47.4 µM	48.3 µM
O=[N+]([O-])c1ccc(C2=NOC(c3ccccc3)N2C23CC4CC(CC(C4)C2)C3)cc1 (configuration not stated)	> 100 µM	57.9 µM		71.9 µM	> 100 µM	66.6 µM	> 100 µM	> 100 µM	37.5 µM	67.3 µM		52.6 µM	50.1 µM	3.23 µM	38.4 µM	> 100 µM	58 µM
